biological target: T1, His-tagged full-length RSK2 (RPS6KA3) (Homo sapiens, UniProt P51812); test: RSK2 Omnia Assay for compound IC50 determination; type: biochemical; conditions: ATP 15 μM, n=2, read-out: Mean RSK2 Biochem IC50
T1 construct: His-tagged full-length RSK2 (RPS6KA3, Invitrogen PV3323); His; purchased Invitrogen PV3323
Summary of the method: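 Initial-rate slopes from continuous kinetic reads were fitted to a four-parameter equation for IC50 (n=2). Ki was then derived by Cheng-Prusoff assuming ATP-competitive inhibition. Reactions contained 15 μM ATP (Km 16.3 μM), 5 μM Omnia ST Peptide 6, and […] in 50 mM HEPES pH 7.5, 10 mM MgCl2, 1 mM DTT, 1% DMSO. Compounds spanned 11 threefold steps, […] final.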

T1 sequence (P51812 whole entry): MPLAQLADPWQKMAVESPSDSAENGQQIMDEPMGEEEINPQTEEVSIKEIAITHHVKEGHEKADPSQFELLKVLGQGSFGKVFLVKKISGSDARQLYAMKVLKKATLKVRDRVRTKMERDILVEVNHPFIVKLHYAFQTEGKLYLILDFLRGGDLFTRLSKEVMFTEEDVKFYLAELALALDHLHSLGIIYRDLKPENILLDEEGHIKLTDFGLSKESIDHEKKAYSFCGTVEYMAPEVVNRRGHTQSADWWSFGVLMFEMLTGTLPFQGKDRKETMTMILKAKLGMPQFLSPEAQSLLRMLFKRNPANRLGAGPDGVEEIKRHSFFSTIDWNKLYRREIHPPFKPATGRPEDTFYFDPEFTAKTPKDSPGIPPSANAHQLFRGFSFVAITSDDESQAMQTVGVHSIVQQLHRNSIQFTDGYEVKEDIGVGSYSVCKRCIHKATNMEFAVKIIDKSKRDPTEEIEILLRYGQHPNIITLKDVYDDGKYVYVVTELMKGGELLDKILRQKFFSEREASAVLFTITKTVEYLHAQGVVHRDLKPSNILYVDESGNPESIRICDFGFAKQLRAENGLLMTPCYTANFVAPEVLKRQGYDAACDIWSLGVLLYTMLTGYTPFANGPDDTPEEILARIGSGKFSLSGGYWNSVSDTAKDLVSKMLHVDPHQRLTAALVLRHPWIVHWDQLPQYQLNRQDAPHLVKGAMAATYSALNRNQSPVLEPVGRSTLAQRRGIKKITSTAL

Row | SMILES | IC50
1 | COc1ccc(N2C(=O)[C@@H](C)N([C@H]3CC[C@H](C)CC3)c3nc(Nc4cc(F)c5[nH]ncc5c4)ncc32)cc1OC [compound 239, (7R)-5-(3,4-dimethoxyphenyl)-2-[(7-fluoro-1H-indazol-5-yl)amino]-7-methyl-8-(trans-4-methylcyclohexyl)-7,8-dihydropteridin-6(5H)-one] | ≤ 100 nM
2 | C[C@@H]1C(=O)N(c2cccc(C#N)c2)c2cnc(Nc3ccc4[nH]nc(F)c4c3F)nc2N1C1CCCCC1 [compound 144, 3-[(7R)-8-cyclohexyl-2-[(3,4-difluoro-1H-indazol-5-yl)amino]-7-methyl-6-oxo-7,8-dihydropteridin-5(6H)-yl]benzonitrile] | ≤ 100 nM
3 | CC[C@@H]1C(=O)N(c2ccc(OC)c(F)c2)c2cnc(Nc3cc(F)c4[nH]ncc4c3)nc2N1C1CCCCC1 [compound 294, (7R)-8-cyclohexyl-7-ethyl-2-[(7-fluoro-1H-indazol-5-yl)amino]-5-(3-fluoro-4-methoxyphenyl)-7,8-dihydropteridin-6(5H)-one] | ≤ 100 nM
4 | C[C@@H]1C(=O)N(c2cccc(C#N)c2)c2cnc(Nc3ccc4[nH]ncc4c3)nc2N1CC1CCC1 [Example 71, 3-[(7R)-8-(cyclobutylmethyl)-2-(1H-indazol-5-ylamino)-7-methyl-6-oxo-7,8-dihydropteridin-5(6H)-yl]benzonitrile] | ≤ 100 nM
5 | CCOc1ccc(N2C(=O)[C@@H](C)N([C@H]3CC[C@H](C)CC3)c3nc(Nc4ccc5[nH]c(=O)oc5c4)ncc32)cc1C#N [compound 247, 2-Ethoxy-5-[(7R)-7-methyl-8-(trans-4-methylcyclohexyl)-6-oxo-2-[(2-oxo-2,3-dihydro-1,3-benzoxazol-6-yl)amino]-7,8-dihydropteridin-5(6H)-yl]benzonitrile] | ≤ 100 nM
6 | COc1ccc(N2C(=O)[C@@H](C)N(C3CCCCC3)c3nc(NCCc4cn[nH]c4)ncc32)cc1OC [compound 170] | > 1000 nM
7 | C[C@@H]1C(=O)N(c2cccc(C#N)c2)c2cnc(Nc3ccc4[nH]ncc4c3)nc2N1C1CCC(C)(C)CC1 [Example 207, 3-[(7R)-8-(4,4-dimethylcyclohexyl)-2-(1H-indazol-5-ylamino)-7-methyl-6-oxo-7,8-dihydropteridin-5(6H)-yl]benzonitrile] | ≤ 100 nM
8 | CCOc1ccc(N2C(=O)[C@@H](C)N([C@H]3CC[C@H](C)CC3)c3nc(Nc4cnc5[nH]ncc5c4)ncc32)cc1C#N [compound 246, 2-Ethoxy-5-[(7R)-7-methyl-8-(trans-4-methylcyclohexyl)-6-oxo-2-(1H-pyrazolo[3,4-b]pyridin-5-ylamino)-7,8-dihydropteridin-5(6H)-yl]benzonitrile] | ≤ 100 nM
9 | C[C@@H]1C(=O)N(c2cccc(C#N)c2)c2cnc(Nc3ccc4c(c3)CC(=O)N4)nc2N1C1CCCCC1 [Example 51, 3-[(7R)-8-cyclohexyl-7-methyl-6-oxo-2-[(2-oxo-2,3-dihydro-1H-indol-5-yl)amino]-7,8-dihydropteridin-5(6H)-yl]benzonitrile] | ≤ 100 nM
10 | C[C@@H]1C(=O)N(c2ccc(N3CCOCC3)nc2)c2cnc(Nc3cc(F)c4[nH]ncc4c3)nc2N1C1CCC(C)(C)CC1 [Example 213, (7R)-8-(4,4-dimethylcyclohexyl)-2-[(7-fluoro-1H-indazol-5-yl)amino]-7-methyl-5-[6-(morpholin-4-yl)pyridin-3-yl]-7,8-dihydropteridin-6(5H)-one] | ≤ 100 nM
11 | C[C@@H]1C(=O)N(c2ccccc2)c2cnc(Nc3ccc4[nH]ncc4c3)nc2N1CC1CCCC1 [Example 75, (7R)-8-(cyclopentylmethyl)-2-(1H-indazol-5-ylamino)-7-methyl-5-phenyl-7,8-dihydropteridin-6(5H)-one] | ≤ 100 nM
12 | CNS(=O)(=O)Cc1ccc(Nc2ncc3c(n2)N(CCC(C)C)C(C)C(=O)N3c2ccccc2)cc1 (stereo not shown) [Example 7, N-methyl-1-(4-{[7-methyl-8-(3-methylbutyl)-6-oxo-5-phenyl-5,6,7,8-tetrahydropteridin-2-yl]amino}phenyl)methanesulfonamide] | > 1000 nM
13 | C[C@@H]1C(=O)N(c2ccc(N3CCCCC3)nc2)c2cnc(Nc3cc(F)c4[nH]ncc4c3)nc2N1C1CCC(C)(C)CC1 [Example 215, (7R)-8-(4,4-dimethylcyclohexyl)-2-[(7-fluoro-1H-indazol-5-yl)amino]-7-methyl-5-[6-(piperidin-1-yl)pyridin-3-yl]-7,8-dihydropteridin-6(5H)-one] | ≤ 100 nM
14 | COc1ccc(N2C(=O)[C@@H](C)N(CCC(C)C)c3nc(Nc4cc(F)c5[nH]c(=O)oc5c4)ncc32)cc1OC [Example 88, (7R)-5-(3,4-dimethoxyphenyl)-2-[(4-fluoro-2-oxo-2,3-dihydro-1,3-benzoxazol-6-yl)amino]-7-methyl-8-(3-methylbutyl)-7,8-dihydropteridin-6(5H)-one] | ≤ 100 nM
15 | C[C@@H]1C(=O)N(c2cccnc2)c2cnc(Nc3cc(F)c4[nH]ncc4c3)nc2N1C1CCCCC1 [compound 135, (7R)-8-cyclohexyl-2-[(7-fluoro-1H-indazol-5-yl)amino]-7-methyl-5-(pyridin-3-yl)-7,8-dihydropteridin-6(5H)-one] | ≤ 100 nM
16 | CO[C@H]1CC[C@H](N2c3nc(Nc4ccc5[nH]c(=O)oc5c4)ncc3N(c3cccc(C#N)c3)C(=O)[C@H]2C)CC1 [compound 229, 3-[(7R)-8-(trans-4-methoxycyclohexyl)-7-methyl-6-oxo-2-[(2-oxo-2,3-dihydro-1,3-benzoxazol-6-yl)amino]-7,8-dihydropteridin-5(6H)-yl]benzonitrile] | ≤ 100 nM
17 | CC(C)CCN1c2nc(Nc3ccc4[nH]ncc4c3)ncc2N(c2ccccc2)C(=O)C1(C)C [Example 70, 2-(1H-indazol-5-ylamino)-7,7-dimethyl-8-(3-methylbutyl)-5-phenyl-7,8-dihydropteridin-6(5H)-one] | ≤ 100 nM
18 | C[C@@H]1C(=O)N(c2ccc3ccccc3c2)c2cnc(Nc3ccc4[nH]ncc4c3)nc2N1C1CCCCC1 [Example 45, (7R)-8-cyclohexyl-2-(1H-indazol-5-ylamino)-7-methyl-5-(naphthalen-2-yl)-7,8-dihydropteridin-6(5H)-one] | ≤ 100 nM
19 | C[C@@H]1C(=O)N(c2cccc([S+](C)[O-])c2)c2cnc(Nc3ccc4[nH]ncc4c3)nc2N1C1CCCCC1 (stereo partly drawn) [compound 114, (7R)-8-cyclohexyl-2-(1H-indazol-5-ylamino)-7-methyl-5-[3-(methylsulfinyl)phenyl]-7,8-dihydropteridin-6(5H)-one] | ≤ 100 nM

The next lines start with the values.

Row | IC50 | SMILES
20 | ≤ 100 nM | C[C@@H]1C(=O)N(c2ccc(N3CCN(C)CC3)c(C#N)c2)c2cnc(Nc3cnc4[nH]ncc4c3)nc2N1[C@H]1CC[C@H](C)CC1 [compound 252, 5-[(7R)-7-methyl-8-(trans-4-methylcyclohexyl)-6-oxo-2-(1H-pyrazolo[3,4-b]pyridin-5-ylamino)-7,8-dihydropteridin-5(6H)-yl]-2-(4-methylpiperazin-1-yl)benzonitrile]
21 | ≤ 100 nM | C[C@@H]1C(=O)N(c2cccc(C#N)c2)c2cnc(Nc3ccc4[nH]ncc4c3F)nc2N1C1CCOCC1 [compound 185, 3-[(7R)-2-[(4-fluoro-1H-indazol-5-yl)amino]-7-methyl-6-oxo-8-(tetrahydro-2H-pyran-4-yl)-7,8-dihydropteridin-5(6H)-yl]benzonitrile]
22 | ≤ 100 nM | Cc1ccc(N2C(=O)[C@@H](C)N(C3CCCCC3)c3nc(Nc4ccc5[nH]ncc5c4)ncc32)cc1 [Example 22, (7R)-8-cyclohexyl-2-(1H-indazol-5-ylamino)-7-methyl-5-(4-methylphenyl)-7,8-dihydropteridin-6(5H)-one]
23 | ≤ 100 nM | C[C@@H]1C(=O)N(c2ccc(N(C)C)nc2)c2cnc(Nc3ccc4[nH]ncc4c3)nc2N1C1CCCCC1 [compound 129, (7R)-8-cyclohexyl-5-[6-(dimethylamino)pyridin-3-yl]-2-(1H-indazol-5-ylamino)-7-methyl-7,8-dihydropteridin-6(5H)-one]
24 | ≤ 100 nM | C[C@@H]1C(=O)N(c2cccc(C#N)c2)c2cnc(Nc3ccc4[nH]c(=O)oc4c3)nc2N1C1CCCCC1 [compound 149, 3-[(7R)-8-cyclohexyl-7-methyl-6-oxo-2-[(2-oxo-2,3-dihydro-1,3-benzoxazol-6-yl)amino]-7,8-dihydropteridin-(6H)-yl]benzonitrile]
25 | ≤ 100 nM | CC(C)Oc1ccc(N2C(=O)[C@@H](C)N([C@H]3CC[C@H](C)CC3)c3nc(Nc4cnc5[nH]ncc5c4)ncc32)cc1C#N [compound 248, 5-[(7R)-7-methyl-8-(trans-4-methylcyclohexyl)-6-oxo-2-(1H-pyrazolo[3,4-b]pyridin-5-ylamino)-7,8-dihydropteridin-5(6H)-yl]-2-(propan-2-yloxy)benzonitrile]
26 | ≤ 100 nM | C[C@@H]1C(=O)N(c2cccc(C#N)c2)c2cnc(Nc3cnc4[nH]c(=O)oc4c3)nc2N1C1CCCCC1 [compound 172, 3-[(7R)-8-cyclohexyl-7-methyl-6-oxo-2-[(2-oxo-2,3-dihydro[1,3]oxazolo[4,5-b]pyridin-6-yl)amino]-7,8-dihydropteridin-5(6H)-yl]benzonitrile]
27 | ≤ 100 nM | CCOc1ccc(N2C(=O)[C@@H](C)N(C3CCOCC3)c3nc(Nc4ccc5[nH]c(=O)oc5c4)ncc32)cc1C#N [compound 198, 2-Ethoxy-5-[(7R)-7-methyl-6-oxo-2-[(2-oxo-2,3-dihydro-1,3-benzoxazol-6-yl)amino]-8-(tetrahydro-2H-pyran-4-yl)-7,8-dihydropteridin-5(6H)-yl]benzonitrile]
28 | ≤ 100 nM | CC(C)Oc1ccc(N2C(=O)[C@@H](C)N(C3CCOCC3)c3nc(Nc4cc(F)c5[nH]ncc5c4)ncc32)cc1C#N [compound 196, 5-[(7R)-2-[(7-fluoro-1H-indazol-5-yl)amino]-7-methyl-6-oxo-8-(tetrahydro-2H-pyran-4-yl)-7,8-dihydropteridin-5(6H)-yl]-2-(propan-2-yloxy)benzonitrile]
